# Test system: isolated rat epididymal adipocytes
# Assay: Glucose transport assay (2-DOG uptake)
# Type: cell-based
# Settings: for glucose transport at higher doses: rat adipocytes, 4 h
Compound,"glucose transport (insulin at the indicated concentrations, 30 min)",glucose transport at higher doses
insulin,increased glucose transport in a dose-dependent manner,
"CN(C)C(=N)N=C(N)N [metformin, reference compound]",,remained unchanged
"COc1ccc(Cl)cc1C(=O)NCCc1ccc(S(=O)(=O)NC(=O)NC2CCCCC2)cc1 [glyburide, reference compound]",,decreased

# From patent US7192981B2, “3,4-dihydroxyhydrocinnamic acid derivative” (Bionutrigen Co., Ltd., priority 2005, dated 2007)
